# Legend:
# Type in all cases: in vivo
# [1] = test system: fatty liver of the SD rats; experiment: Pathological sections and grading of fatty liver of SD rats; conditions: compounds 80 mg/kg, Sim 10 mg/kg, OCA 10 mg/kg
# Method: (§1) 500 g of lard oil was taken, placed in a container, and heated to melt. When the temperature rose to 100° C., it was added with 200 g of cholesterol to dissolve completely, and then further added with 20 g of propylthiouracil. The resulted mixture was stirred well, and added with 500 ml of Tween 80 after dissolution, resulting in an oil phase. At the same time, 600 mL of distilled water and 400 mL of 1,2-propanediol were taken and heated to 60° C. in a water bath, then were added with 40 g of sodium deoxycholate. The resulted mixture was stirred well until realizing complete dissolution, so as to give an aqueous phase. The aqueous phase was added into the oil phase and mixed well to give a lipid emulsion. The lipid emulsion was heated in a water bath of 37° C. before intragastric administration to animals.
# (§2) An appropriate amount of pharmaceutical was weighed, added with 0.5% CMC-Na, and mixed homogeneously by grinding. There are groups for Compound 01 (80 mg/kg), Compound 02 (80 mg/kg), Compound 03 (80 mg/kg), Compound 04 (80 mg/kg), Compound 05 (80 mg/kg), Compound 06 (80 mg)/kg), Compound 07 (80 mg/kg), Compound 08 (80 mg/kg), Compound 09 (80 mg/kg), Compound 10 (80 mg/kg), Compound 11 (80 mg/kg), Compound 12 (80 mg/kg), Compound 13 (80 mg/kg), Compound 14 (80 mg/kg), Compound 15 (80 mg/kg), Compound 16 (80 mg/kg), Compound 17 (80 mg/kg), Compound 18 (80 mg/kg), Compound 19 (80 mg/kg), Compound 20 (80 mg/kg), Compound 21 (80 mg/kg), and Compound 22 (80 mg/kg).
# (§3) Male SD rats weighing 180-200 g were fed adaptively for 7 days. Based on body weight, 10 animals were used as control and the remaining animals were intragastrically administered with the lipid emulsion every day, 1 ml/100 g body weight for 14 days. After fasting for 12 hours, 1 mL of blood was collected from the orbits of the animals, and was determined by Hitachi Automatic Biochemical Analyzer 7080 for serum cholesterol (CHO), triglyceride (TG), low density lipoprotein (LDL-C) and high density lipoprotein (HDL-C).
# (§4) The modeled rats were continued with the intragastric administration of the lipid emulsion. At the same time, the pharmaceutical-administered groups were administrated with a corresponding dose of pharmaceuticals, while the Model group was administrated with an equal volume of solvent. The pharmaceutical-administered groups were administrated with the lipid emulsion in the morning, and with the pharmaceuticals in the afternoon. The animals were measured for the body weight once a week, and were observed. After 14 days of continuous administration, 1 mL of blood was collected from the orbits, and was determined for the contents of triglyceride, cholesterol, low density lipoprotein and high density lipoprotein in blood serum.
# [2] = test system: Fatty Liver Diseases of SD Rats; experiment: Liver functions of lipid-emulsion SD rats after administration for 4 weeks; parameters: unit not given here; conditions: compounds 80 mg/kg, Obeticholic Acid 10 mg/kg
# [3] = test system: Fatty Liver Diseases of SD Rats; experiment: Blood serum lipids in SD rats given lipid emulsion (fatty liver model); parameters: unit not given here; conditions: blood serum after 14 days of continuous administration; compounds 80 mg/kg, Obeticholic Acid 10 mg/kg, intragastric; lipid emulsion continued
# Method: as §1, §2, §3, §4
# [4] = test system: ob/ob mice; experiment: Weight loss experiment in ob/ob mice; conditions: orlistat 40 mg/kg, other pharmaceuticals 80 mg/kg intragastric, x ± s, n = 6, in g (unit assumed)
# Source text: […] ob/ob mice, male, 18-20 g of body weight, fed adaptively for one week before use. The mice were randomly divided into Control group, Model group, Orlistat group, Compound 13 group and Compound 14 group, with 6 mice in each group.
# (§5) appropriate amounts of orlistat, Compound 13 and Compound 14 were weighed respectively, added with 0.5% CMC-Na and grinded to dissolve.
# After feeding for one week, the mice were intragastrically administrated with the pharmaceuticals except the mice of Control group. The dose was 40 mg/kg body weight for orlistat, 80 mg/kg for the other pharmaceuticals. The body weight of the mice was weighed every week during the experiment which lasted for 28 days.
# [5] = test system: nutritive obesity C57 mice; experiment: Weight loss experiment in nutritive obesity C57 mice; parameters: key to body weight of mice: body weight in g; conditions: high-fat diet, orlistat 40 mg/kg, Compounds 13 and 14 80 mg/kg intragastric, x ± s, n = 6, in g (unit assumed)
# Source text: C57 mice, male, 18-20 g of body weight. The mice were randomly divided into Control group, Model group, Orlistat group, Compound 13 group and Compound 14 group, with 6 mice in each group.
# as §5
# The mice in Control group were fed with normal diet, and the other mice were fed with high-fat diet. All of the mice had free access to water. After one week of feeding, the pharmaceuticals were intragastrically administrated. The dose was 40 mg/kg body weight for orlistat, 80 mg/kg for Compounds 13 and 14. The body weight of the mice was weighed every week during the experiment which lasted for 28 days.
SMILES,Pathological grading: Steatotic hepatocytes ([1]; animal 1),Pathological grading: Steatotic hepatocytes ([1]; animal 2),Pathological grading: Steatotic hepatocytes ([1]; animal 3),Pathological grading: Steatotic hepatocytes ([1]; animal 4),Pathological grading: Steatotic hepatocytes ([1]; animal 5),ALP [2],ALT [2],AST [2],TBIL [2],CHO (serum cholesterol) [3],HDL-C (high density lipoprotein) [3],LDL-C (low density lipoprotein) [3],TG (triglyceride) [3],other results
CC(=O)c1ccc(NC(=O)C(C)(C)CCCOc2cc(C)ccc2C)cc1 [Compound 02],+ (25-45% of hepatocytes undergoing steatosis),+ (25-45% of hepatocytes undergoing steatosis),++ (45-65% of hepatocytes undergoing steatosis),+ (25-45% of hepatocytes undergoing steatosis),++ (45-65% of hepatocytes undergoing steatosis),1001.52 ± 273.34,62.52 ± 13.24,187.00 ± 36.44,1.98 ± 0.81,4.29 ± 0.65,1.74 ± 0.29,2.18 ± 0.71,0.51 ± 0.19,–
Cc1ccc(C)c(OCCCC(C)(C)C(=O)Nc2ccc(C(=O)CNC(=O)c3cccnc3)cc2)c1 [Compound 12],0,–,0,0,–,994.50 ± 150.68,54.00 ± 5.72,137.75 ± 31.74,3.25 ± 2.11,4.03 ± 0.47,1.92 ± 0.11,2.16 ± 0.05,0.33 ± 0.05,Pathological grading: Infiltration of inflammatory cells ([1]; animal 1): 0; Pathological grading: Infiltration of inflammatory cells ([1]; animal 3): 0; Pathological grading: Infiltration of inflammatory cells ([1]; animal 5): 0
Cc1ccc(C)c(OCCCC(C)(C)C(=O)NCC(=O)c2ccc(O)c(O)c2)c1 [Compound 21],+ (25-45% of hepatocytes undergoing steatosis),0,+ (25-45% of hepatocytes undergoing steatosis),+ (25-45% of hepatocytes undergoing steatosis),+ (25-45% of hepatocytes undergoing steatosis),1074.00 ± 181.32,65.6 ± 27.20,184.40 ± 18.68,3.23 ± 1.35,4.37 ± 0.62,1.99 ± 0.44,2.09 ± 0.68,0.80 ± 0.13,Pathological grading: Infiltration of inflammatory cells ([1]; animal 4): 0
Cc1ccc(C)c(OCCCC(C)(C)C(=O)NCC(=O)c2ccc(OC(=O)c3cccnc3)c(O)c2)c1 [Compound 22],+ (25-45% of hepatocytes undergoing steatosis),+ (25-45% of hepatocytes undergoing steatosis),++ (45-65% of hepatocytes undergoing steatosis),+ (25-45% of hepatocytes undergoing steatosis),+ (25-45% of hepatocytes undergoing steatosis),874.33 ± 251.66,58.00 ± 2.55,180.60 ± 27.19,2.97 ± 1.53,4.36 ± 1.08,1.47 ± 0.51,2.87 ± 1.25,0.57 ± 0.27,–
"CC[C@H]1[C@@H](O)[C@@H]2[C@H](CC[C@]3(C)[C@@H]([C@H](C)CCC(=O)O)CC[C@@H]23)[C@@]2(C)CC[C@@H](O)C[C@@H]12 [Obeticholic Acid, Obeticholic acid, reference compound]",++ (45-65% of hepatocytes undergoing steatosis),++ (45-65% of hepatocytes undergoing steatosis),++ (45-65% of hepatocytes undergoing steatosis),+++ (65-85% or more of hepatocytes undergoing steatosis),++ (45-65% of hepatocytes undergoing steatosis),999.60 ± 354.29,136.40 ± 62.68,248.20 ± 156.61,4.06 ± 1.40,4.74 ± 0.34,1.68 ± 0.22,2.85 ± 1.00,0.52 ± 0.06,–
"CCCCCCCCCCC[C@@H](C[C@@H]1OC(=O)[C@H]1CCCCCC)OC(=O)[C@H](CC(C)C)NC=O [Orlistat, reference compound]",–,–,–,–,–,–,–,–,–,–,–,–,–,body weight of ob/ob mice ([4]; Experiment Day 0): 20.53 ± 0.50; body weight of ob/ob mice ([4]; Experiment Day 7): 22.82 ± 1.79; body weight of ob/ob mice ([4]; Experiment Day 14): 23.98 ± 1.85; body weight of ob/ob mice ([4]; Experiment Day 21): 26.86 ± 1.99; body weight of ob/ob mice ([4]; Experiment Day 28): 31.23 ± 2.31; body weight of mice ([5]; Experiment Day 0): 18.28 ± 0.65; body weight of mice ([5]; Experiment Day 7): 20.29 ± 0.63; body weight of mice ([5]; Experiment Day 14): 21.39 ± 0.70; body weight of mice ([5]; Experiment Day 21): 22.51 ± 0.73; body weight of mice ([5]; Experiment Day 28): 24.47 ± 0.79
